Assay results as given in US6225478A, “Iridoid derivatives and neovascularization inhibitors containing the same as active ingredient” (Tsumura & Co., priority 1999, dated 2001).

Columns and labels:
[1] = system: human umbilical-vein endothelial cells (HUVEC); experiment: Tube Formation Assay (TFA) Test, HUVEC in collagen gel; assay type: cell-based; conditions: Homo sapiens, HUVEC, Tables 75-83; 0.32 mM sample solution; method as for Compounds 1 through 60; read-out: TFA Inhibition rate (%)
In short: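 Inhibition rate (%) of tube formation is computed from tube lengths against control (+) and control (-), measured after 20 h at 37 °C in M-199 with 20% FCS, 30 ng/ml b-FGF and 0.1 μM PMA. Samples were applied to HUVEC on collagen and covered by a second collagen layer (double-layer gel).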

HUFEC = experiment: Cell Migration Assay (CMA) Test, inhibitory rate with control (-) correction; assay type: cell-based, human; conditions: Homo sapiens, 24 h, 125 μl of 0.32 mM sample solution in 4.0 ml medium, 80% or more = remarkable
In short: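 Confluent HUFEC monolayers were scratch-wounded, then cultured 24 h at 37 °C, 5% CO2 in M199 (2+) medium with compound added as 125 μl of a 0.32 mM solution (3.2% DMSO) per 4 ml. Giemsa-stained cells migrating into 1 mm×1 mm blocks counted; inhibition % calculated relative to control (+) and control (−) wells.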

| Structure (SMILES) | inhibition at 320 µM (stock) [1] [%] | inhibition at 320 µM (stock) (HUFEC) [%] |
| --- | --- | --- |
| COC(=O)C1=CO[C@@H](OC(=O)NCc2ccc(F)cc2)[C@H]2[C@@H]1CC[C@@H]2C [I-213] | 6.2 | 21.5 |
| COC(=O)C1=CO[C@@H](OC(=O)NCCc2ccccc2F)[C@H]2[C@@H]1CC[C@@H]2C [I-185] | 4.9 | 15.6 |
| COC(=O)C1=CO[C@@H](OC(=O)NN2CCN(C)CC2)[C@@H]2C(C)=CC[C@H]12 [I-73] | 8.2 | 15.6 |
| CCN1CCN(C(=O)O[C@@H]2OC=C(C(=O)OC)[C@H]3CC=C(C)[C@@H]23)CC1 [I-95] | 4.5 | 9.8 |
| COC(=O)C1=CO[C@@H](OC(=O)N(C)Cc2ccccc2)[C@@H]2C(C)=CC[C@H]12 [I-81] | 8.3 | 31.2 |
| COC(=O)C1=CO[C@@H](OC(=O)NCCc2ccc(O)cc2)[C@@H]2C(C)=CC[C@H]12 [I-100] | 23.3 | 21.9 |
| COC(=O)C1=CO[C@@H](OC(=O)Nc2cccc(C(C)=O)c2)[C@@H]2C(C)=CC[C@H]12 [I-171] | 5.8 | 3 |
| COC(=O)C1=CO[C@@H](OC(=O)N2CCSCC2)[C@H]2[C@@H]1CC[C@@H]2C [I-219] | 30.6 | 6.3 |
| COC(=O)C1=CO[C@@H](OC(=O)Nc2ccc([N+](=O)[O-])cc2)[C@@H]2C(C)=CC[C@H]12 [I-168] | 4.2 | 17.2 |
| C[C@]12O[C@H]1C[C@@H]1C(C(=O)N3CCN(CCO)CC3)=COC[C@@H]12 [I-304] | 11.2 | 9.4 |
| COC(=O)C1=COC[C@@H]2C(CSc3nc4ccccc4s3)=CC[C@H]12 [I-292] | 23.5 | 57.9 |
| COC(=O)C1=CO[C@@H](OC(=O)NC(C)C)[C@H]2[C@@H]1CC[C@@H]2C [I-261] | 32.1 | 37.5 |
| COC(=O)C1=CO[C@@H](OC(=O)NC2CCN(Cc3ccccc3)CC2)[C@H]2[C@@H]1CC[C@@H]2C [I-192] | 4.5 | 7.8 |
| COC(=O)C1=CO[C@@H](OC(=O)NCCCN(C)C)[C@H]2[C@@H]1CC[C@@H]2C [I-210] | 8.9 | 8 |
| COC(=O)C1=CO[C@@H](OC(=O)Nc2c(F)cccc2F)[C@H]2[C@@H]1CC[C@@H]2C [I-276] | 8.2 | 5.7 |
| COC(=O)C1=CO[C@@H](OC(=O)NCc2ccc(F)cc2F)[C@@H]2C(C)=CC[C@H]12 [I-77] | 7.2 | 5.9 |
| COC(=O)C1=CO[C@@H](OC(=O)Nc2cccc(C(C)=O)c2)[C@H]2[C@@H]1CC[C@@H]2C [I-273] | 17.5 | 3.8 |
| COC(=O)C1=CO[C@@H](OC(=O)NCCS)[C@@H]2C(C)=CC[C@H]12 [I-134] | 8.6 | 7.1 |
| COC(=O)C1=COC[C@@H]2C(COC(=O)NCCCl)CC[C@H]12 (stereo partly shown) [I-297] | 11.2 | 15.2 |

| Structure (SMILES) | inhibition at 320 µM (stock) [1] [%] | inhibition at 320 µM (stock) (HUFEC) [%] |
| --- | --- | --- |
| COC(=O)C1=CO[C@@H](OC(=O)NC2CCN(Cc3ccccc3)CC2)[C@@H]2C(C)=CC[C@H]12 [I-89] | 31.3 | 9.9 |
| COC(=O)C1=CO[C@@H](OC(=O)NCc2ccncc2)[C@H]2[C@@H]1CC[C@@H]2C [I-221] | 24.5 | 15.6 |
| COC(=O)C1=CO[C@@H](OC(=O)NCc2ccccc2F)[C@H]2[C@@H]1CC[C@@H]2C [I-231] | 5.9 | 9.7 |
| COC(=O)C1=CO[C@@H](OC(=O)NCCc2cccc(F)c2)[C@H]2[C@@H]1CC[C@@H]2C [I-205] | 2 | 8.7 |
| COC(=O)C1=CO[C@@H](OC(=O)NC2Cc3ccccc3C2)[C@@H]2C(C)=CC[C@H]12 [I-145] | 17.5 | 27.3 |
| COC(=O)C1=CO[C@@H](OC(=O)NCCc2ccc(F)cc2)[C@@H]2C(C)=CC[C@H]12 [I-107] | 4.4 | 31.2 |
| COC(=O)C1=CO[C@@H](OC(=O)N2CCc3ccccc3C2)[C@@H]2C(C)=CC[C@H]12 [I-120] | 7.8 | 3.1 |
| CCCN(C)C(=O)O[C@@H]1OC=C(C(=O)OC)[C@H]2CC[C@H](C)[C@@H]12 [I-193] | 6.7 | 5.3 |
| COC(=O)C1=CO[C@@H](OC(=O)Nc2ccccc2F)[C@@H]2C(C)=CC[C@H]12 [I-158] | 8.5 | 7.3 |
| COC(=O)C1=CO[C@@H](OC(=O)N(C)CCN(C)C)[C@H]2[C@@H]1CC[C@@H]2C [I-189] | 4.7 | 8.5 |
| COC(=O)C1=CO[C@@H](OC(=O)NCCc2ccccc2F)[C@@H]2C(C)=CC[C@H]12 [I-82] | 5.5 | 13.7 |
| COC(=O)C1=CO[C@@H](OC(=O)NC(=O)c2ccccc2)[C@@H]2C(C)=CC[C@H]12 [I-153] | 19 | 22.3 |
| COC(=O)C1=CO[C@@H](OC(=O)N2CC=CCC2)[C@H]2[C@@H]1CC[C@@H]2C [I-194] | 3 | 5.5 |
| COC(=O)C1=CO[C@@H](OC(=O)Nc2c(F)cccc2F)[C@@H]2C(C)=CC[C@H]12 [I-157] | 12.9 | 7.7 |
| COC(=O)C1=CO[C@@H](OC(=O)NCCc2c[nH]c3ccccc23)[C@H]2[C@@H]1CC[C@@H]2C [I-220] | 7.4 | 25 |
| COC(=O)C1=CO[C@@H](OC(=O)NCCCN2CCOCC2)[C@@H]2C(C)=CC[C@H]12 [I-124] | 2.6 | 5.7 |
| COC(=O)C1=CO[C@@H](OC(=O)NCCCCCO)[C@@H]2C(C)=CC[C@H]12 [I-104] | 3.8 | 24.1 |
| COC(=O)C1=CO[C@@H](OC(=O)Nc2ccc(OC)cc2)[C@H]2[C@@H]1CC[C@@H]2C [I-263] | 5.5 | 7.2 |
| COC(=O)C1=CO[C@@H](OC(=O)NCCc2ccccc2)[C@H]2[C@@H]1CC[C@@H]2C [I-224] | 10.5 | 15.6 |

| Structure (SMILES) | inhibition at 320 µM (stock) [1] [%] | inhibition at 320 µM (stock) (HUFEC) [%] |
| --- | --- | --- |
| CCOC(=O)C1=CO[C@@H](OC(=O)NC)[C@@H]2C(C)=CC[C@H]12 [I-312] | 41.8 | 34.9 |
| CNC(=O)OCC1=CC[C@@H]2C(C(=O)OC)=COC[C@H]12 [I-295] | 7.9 | 5.6 |
| COC(=O)C1=CO[C@@H](OC(=O)NCCN2CCCCC2)[C@H]2[C@@H]1CC[C@@H]2C [I-223] | 17.9 | 18.8 |
| CONC(=O)O[C@@H]1OC=C(C(=O)OC)[C@H]2CC=C(C)[C@@H]12 [I-137] | 6.4 | 3.3 |
| COC(=O)CNC(=O)O[C@@H]1OC=C(C(=O)OC)[C@H]2CC[C@H](C)[C@@H]12 [I-246] | 4.9 | 23.4 |
| COC(=O)C1=CO[C@@H](OC(=O)Nc2ccc(Cl)cc2)[C@@H]2C(C)=CC[C@H]12 [I-162] | 7.5 | 8.9 |
| COC(=O)C1=CO[C@@H](OC(=O)NCC(OC)OC)[C@@H]2C(C)=CC[C@H]12 [I-96] | 19.7 | 5.9 |
| COC(=O)C1=CO[C@@H](OC(=O)NC2Cc3ccccc3C2)[C@H]2[C@@H]1CC[C@@H]2C [I-247] | 9.7 | 23.4 |
| COC(=O)C1=CO[C@@H](OC(=O)NCCc2ccccn2)[C@@H]2C(C)=CC[C@H]12 [I-79] | 4.7 | 13.7 |
| COC(=O)C1=CO[C@@H](OC(=O)NCc2ccncc2)[C@@H]2C(C)=CC[C@H]12 [I-116] | 6.9 | 5.6 |
| COC(=O)C1=CO[C@@H](OC(=O)N2CC=CCC2)[C@@H]2C(C)=CC[C@H]12 [I-91] | 5.1 | 21.6 |
| COC(=O)C1=CO[C@@H](OC(=O)NCCCl)[C@@H]2C(COC(=O)NCCCl)=CC[C@H]12 [I-288] | 2.4 | 15.9 |
| COC(=O)C1=CO[C@@H](OC(=O)NCCSCc2ccccc2)[C@H]2[C@@H]1CC[C@@H]2C [I-253] | 5.7 | 25.1 |
| COC(=O)C1=CO[C@@H](OC(=O)NCC2CC2)[C@H]2[C@@H]1CC[C@@H]2C [I-241] | 5.1 | 12.6 |
| C=CCN(CC=C)C(=O)O[C@@H]1OC=C(C(=O)OC)[C@H]2CC=C(C)[C@@H]12 [I-125] | 2.6 | 17.2 |
| CNC(=O)OCCN1CCN(C(=O)C2=COC[C@@H]3[C@H](C)CC[C@H]23)CC1 [I-306] | 22.6 | 25.1 |
| COC(=O)C1=CO[C@@H](OC(=O)NCc2ccc(OC(F)(F)F)cc2)[C@@H]2C(C)=CC[C@H]12 [I-106] | 26.8 | 6.7 |
| COC(=O)C1=CO[C@@H](OC(=O)NCCN(C)C)[C@@H]2C(C)=CC[C@H]12 [I-117] | 26.8 | 28.1 |
